The values below come from patent US20140193510A1, “Polymer-Agent Conjugates, Particles, Compositions, and Related Methods of Use” (CERULEAN PHARMA INC., priority 2009, published 2014).

Several values for one entry are separate records, joined by “and”; a condition that tells them apart may be missing. Equal entries are not always repeated. Entries after “also recorded” stand apart in the source; their conditions may differ. Where two headings read alike, the source gives them in different places.

Series [1] can be described thus: Body weight changes in A2780 tumor-bearing mice (Example 42). Type of series: in vivo, CD-1 nude mice. Conditions: for % of initial body weight: Day 36. On the procedure: This formulation was made within 30 minutes of administration to mice.
The treatments were administered 2 times, on Day 8 and Day 15 (weekly×2 injections) for n=8 mice per group. […] On Day 50, the study was ended for all remaining mice. When removed from the study, mice were euthanized by CO2 inhalation.

In series [2] the test system is B16.F10 cells. The experiment in a line: Efficacy in B16.F10 murine melanoma model (Example 43). It counts as in vivo, C57BL/6 mice. Conditions: q4dq3dx3 (three injections over 2 weeks), 15 mg/kg IV. On the procedure: Refer to table for detailed description of formulations.
Tumor volume was calculated with the following equation: (width×width×length)/2 mm^3.

Series [3] is described as follows: Tolerability (body weight) in B16.F10 murine melanoma model (Example 43). Type of series: in vivo, C57BL/6 mice.
A short description of series [4]: Body weight in HCT-116 tumor bearing mice (Example 44). Type of series: in vivo, CD-1 nude mice. The conditions noted are these: 30 mg/kg IV.
Method: The treatments were administered IV into the tail vein at the respective dose volumes (refer to previous paragraph), beginning on post-implantation Day 13, when the mean tumor volume was 131 mm^3.
Series [5] in a line: Body weight and ataxia in SK-OV-3 tumor-bearing mice (Example 45). Type of series: in vivo, CD-1 nude mice. Conditions: weekly x two injections.
For series [6], the system named is MDA-MB-435 cells. The experiment in a line: In vivo efficacy, MDA-MB-435 melanoma human xenograft model (Example 46). Conditions: as of Day 76, weekly x two injections. Details: species or system CD-1 nude mice. On the procedure:
MDA-MB-435 cells were grown in culture to confluency in RPMI medium containing 10% FBS and 1% penicillin/streptomycin and then resuspended in RPMI (passage 4) for implantation into mice. A volume of 0.1 mL containing 4.0×10^6 cells MDA-MB-435 cells were implanted into the mammary gland of female CD-1 nude mice on Day 1.
A general note: Xenograft models place foreign cells or tissue in a host animal.

Series [7] in a line: Tolerability in normal non-tumor-bearing mice (body weight, CBC, serum chemistry, ataxia, sciatic nerve; Example 47). Type of series: in vivo, C57BL/6 mice. Conditions: for ataxia: n=5. On the procedure:
Treatments were administered intravenously on a q7dx2 schedule, i.e., two treatments seven days apart (the first treatment was on Day one). The study ended on Day 14, six days after the 2nd treatment. Blood was collected for complete blood count (CBC) and serum chemistry. Leg muscles were collected so that nerve degeneration could be assessed from the sciatic nerve.

The conditions of series [8]: mouse, in vivo.
Method: The stock solution was diluted further with PBS to 0.6, 1.5, 3, 4.5 and 6 mg/mL (for a corresponding dose of 6, 15, 30, 45 and 60 mg/kg) so that all the groups received the same amount of ethanol, polysorbate 80, water and PBS. […] 5) PEGylated O-acetyl-5050-PLGA nanoparticle vehicle at the highest concentration of 6 mg/mL.
The treatments were administered IV into the tail vein at a dose volume of 10 mL/kg, beginning on post-implantation Day 5, when the mean tumor volume was 55 mm^3. The treatments were administered 4 times, on Days 5, 8, 12 and 15 (biweekly×4 injections). On Day 17 post-tumor implantation, mice were euthanized by CO2 inhalation according to the procedure guideline. Blood was collected by cardiac puncture and put into ethylenediaminetetraacetic acid (EDTA) or serum separation blood collection tubes. Whole blood was analyzed on the day of collection for CBC analyses. After the blood clotted and was centrifuged, serum was frozen immediately on dry ice for serum chemistry analyses.
Tolerability was determined by changes in body weight, expressed as a percent of the initial body weight on post-implantation Day 5. […] Other indices of toxicity, complete blood count (CBC) and serum chemistry were determined from blood collected from animals that were euthanized on Day 17 by CO2 inhalation, according to the procedure guideline.
Series [9] is described as follows: Body weight and ataxia in MDA-MB-435 tumor-bearing mice (Example 46). The conditions noted are these: for ataxia: weekly x two injections.
Method: The treatments were administered IV into the tail vein at the dose volumes stated above, beginning on post-implantation Day 21, when the mean tumor volume was 150 mm^3 or, for one group, on Day 37, when the mean tumor volume for that group was 433 mm^3.
For series [10], the system named is B16.F10 cells. Description: CellTiter-Glo Luminescent Cell Viability Assay (cytotoxicity of nanoparticles). The conditions noted are these: 24, 48 and 72 hours of incubation. Type of series: cell-based. On the procedure:
B16.F10 cells, grown to 85-90% confluency in 150 cm^2 flasks (passage <30), were resuspended in media (MEM-alpha, 10% HI-FBS, 1× antibiotic-antimycotic) and added to 96-well opaque-clear bottom plates at a concentration of 1500 cells/well in 200 μL/well. The cells were incubated at 37° C. with 5% CO2 for 24 hours. The following day, serial dilutions of 2× concentrated particles and 2× concentrated free drug were made in 12-well reservoirs with media to specified concentrations. The media in the plates was replaced with 100 μL of fresh media and 100 μL of the corresponding serially diluted drug. Three sets of plates were prepared with duplicate treatments. Following 24, 48 and 72 hours of incubation at 37° C. with 5% CO2, the media in the plates was replaced with 100 μL of fresh media and 100 μL of CTG solution, and then incubated for 5 minutes on a plate shaker at room temperature set to 450 rpm and allowed to rest for 15 minutes. Viable cells were measured by luminescence using a microtiter plate reader. The data was plotted as viability vs. concentration and standardized to untreated cells.
A general note: ATP-based viability assays read luminescence as a measure of living cells.

`CC(=O)O[C@@]12CO[C@@H]1C[C@H](O)[C@@]1(C)C(=O)[C@H](O)C3=C(C)[C@@H](OC(=O)[C@H](O)[C@@H](NC(=O)OC(C)(C)C)c4ccccc4)C[C@@](O)([C@@H](OC(=O)c4ccccc4)[C@H]21)C3(C)C` [Free docetaxel, docetaxel]: the “Maximum body weight loss” value in series [1] (15 mg/kg IV weekly x 2) was 7%; in series [1] (30 mg/kg IV weekly x 2), 10%; in series [3] (q3dq4dx3, 15 mg/kg IV, listed as Docetaxel), 11% and 12%; in [3] (q4dq3dx3, 15 mg/kg IV), 11%; in [3] (q7dx3, 30 mg/kg IV) it was 11%; in [3] (q14dx2, 60 mg/kg IV, listed as Docetaxel), 0%. Further, the “Maximum body weight loss” value in [3] (q14dx2, 60 mg/kg IV, listed as docetaxel) is reported as “did not show any body weight loss”; in series [3] (three times, once every week, 15 mg/kg (as worded)), 11%; in series [4] it was 14%; in series [5] (30 mg/kg IV) it was 13%. Moreover, the “% of initial body weight” value is 113±11% in series [1] (15 mg/kg) and 105±9% in series [1] (30 mg/kg). For the same compound, the “Tumor growth inhibition (TGI)” value in series [2] is on record as 90%. Also, the ataxia result in series [5] (30 mg/kg IV) is on record as “did not cause ataxia”; in series [7] (30 mg/kg IV q7dx2), 0%; in series [7] (45 mg/kg IV q7dx2), 20%; in series [7] (60 mg/kg IV q7dx2), 100%; in [9] (30 mg/kg IV), “did not cause ataxia”; in [9] (60 mg/kg IV, listed as docetaxel) it was “developed ataxia”. Moreover, the ataxia entry in series [9] (60 mg/kg IV, listed as free docetaxel) is “Ataxia was observed four days after the second treatment”. Also, the body weight loss entry in series [5] (60 mg/kg IV) was “greater than 20%”; in series [9] (60 mg/kg IV, Days 21 and 28 (mean tumor size 150 mm^3 at start)), “greater than 20%”. Besides, the “TGI compared with PEGylated nanoparticles” value in series [6] (listed as docetaxel) was “docetaxel at a dose of 30 mg/kg is equivalent to PEGylated nanoparticles at a dose of 60 mg/kg”; in series [6] (listed as free docetaxel), “the treatment at a dose of 15 mg/kg resulted in the same TGI for free docetaxel and PEGylated nanoparticles; also recorded: At a dose of 30 mg/kg, the TGI for free docetaxel was greater than that for PEGylated nanoparticles; also recorded: At a dose of 60 mg/kg, free docetaxel was equivalent to PEGylated nanoparticles until the free drug group was removed from the study”. For the same compound, the “body weight more than the initial on Day 14” value in series [7] (30 mg/kg IV q7dx2) was 3%; in series [7] (45 mg/kg IV q7dx2) it was 2%. Besides, in series [7] (60 mg/kg IV q7dx2, Day 14), the Neutrophil mean is listed as 470 cells/μL. In addition, the “weight lost after the second treatment, by the end of the study” value in series [7] (60 mg/kg IV q7dx2, Day 14) was 19%. Further, the “effect on serum chemistry parameters” value in series [7] (q7dx2, Day 14) is “did not affect any serum chemistry parameter at doses up to 60 mg/kg”; in series [8], “did not affect any serum chemistry parameter at doses up to 30 mg/kg”. Moreover, in [7] (q7dx2, n=5/group, dose in the value), the “mice observed to develop ataxia” value is reported as “no mice in the 30 mg/kg group were seen to develop ataxia or any overt signs of nerve damage; also recorded: One mouse in the 45 mg/kg group was observed to develop ataxia on Day 14; also recorded: Five out of five mice in the 60 mg/kg group was observed to develop ataxia”.

As for docetaxel-5050 PLGA-O-acetyl, in series [10], the “growth of B16.F10 cells (viability)” value was “inhibited the growth of B16.F10 cells in a dose and time dependent manner”.

For doxorubicin 5050 PLGA amide, in [10], the “growth of B16.F10 cells (viability)” value is “inhibited the growth of B16.F10 cells in a dose and time dependent manner”.

Regarding paclitaxel-5050 PLGA-O-acetyl, the “growth of B16.F10 cells (viability)” value in series [10] was “inhibited the growth of B16.F10 cells in a dose and time dependent manner”.
